Results from ChEMBL document CHEMBL5518187, “EGCG-like non-competitive inhibitor of DYRK1A rescues cognitive defect in a down syndrome model” (Eur J Med Chem, 2024).
pIC50: −log10 of the molar value. Each block holds one compound with its values, some of them ahead of it. Active and inactive are the calls of the source. The calls are words filed in the database; no cut-off is given here.

Legend:
[1] = target: Dual specificity tyrosine-phosphorylation-regulated kinase 1A (Homo sapiens, UniProt Q13627); assay: Inhibition of DYRK1A (unknown origin) using KISGRLSPIMTEQ as substrate incubated for 30 mins in presence of ATP by UFLC-based fluorimetric analysis
[2] = Stability in human plasma at 1 uM incubated for 120 mins by LC-MS/MS analysis; type: ADME, cell-free; conditions: 2 h
Mus musculus [3] = assay: Effect on spatial working memory in Dp1Yey C57BL/6J mouse model assessed as reduction in mean speed at 40 mg/kg, po administered 5 days per week for 2 months by Y-maze test; type: functional, organism-based
Mus musculus [4] = assay: Cognitive enhancing effect in Dp1Yey C57BL/6J mouse model assessed as increase in percentage of spontaneous alternation at 40 mg/kg, po administered 5 days per week for 2 months by Y-maze test; type: functional, organism-based
Mus musculus [5] = assay: Effect on spatial working memory in Dp1Yey C57BL/6J mouse model assessed as reduction in total distance travelled at 40 mg/kg, po administered 5 days per week for 2 months by Y-maze test; type: functional, organism-based
Homo sapiens = organism: Homo sapiens; assay: Inhibition of PI3K (unknown origin) at 0.5 uM
[6] = Drug concentration in brain of Dp1Yey C57BL/6J mouse model at 50 mg/kg by UHPLC-MS/MS analysis; type: ADME, organism-based; conditions: in vivo, read-out: Ct
Mus musculus [7] = assay: Effect on spatial working memory in Dp1Yey C57BL/6J mouse model assessed as reduction in time spent in center at 40 mg/kg, po administered 5 days per week for 2 months by Y-maze test; type: functional, organism-based
[8] = target: Mitogen-activated protein kinase 3 (Homo sapiens) (UniProt P27361); assay: Inhibition of ERK1 (unknown origin) at 0.5 uM
[9] = Drug concentration in wildtype mouse brain at 50 mg/kg by UHPLC-MS/MS analysis; type: ADME, organism-based; conditions: in vivo, read-out: Ct
Mus musculus [10] = assay: In vivo inhibition of DYRK1A in C57BL/6J mouse model carrying murine BACtgDyrk1a assessed as decrease in phosphorylated ERK to ERK ratio in brain administered intraperitoneally and measured after 24 hrs; type: functional; conditions: route ip
[11] = target: Tyrosine-protein kinase Fyn (Homo sapiens) (UniProt P06241); assay: Inhibition of FYN (unknown origin) at 0.5 uM
[12] = target: Mitogen-activated protein kinase 1 (Homo sapiens) (UniProt P28482); assay: Inhibition of ERK2 (unknown origin) at 0.5 uM
[13] = target: Glycogen synthase kinase-3 beta (Homo sapiens) (UniProt P49841); assay: Inhibition of GSK3beta (unknown origin) at 0.5 uM
[14] = target: Dual specificity tyrosine-phosphorylation-regulated kinase 1A (Rattus norvegicus, UniProt Q63470); assay: Inhibition of recombinant 6His-tagged rat DYRK1A (1 to 502 residues) expressed in Escherichia coli BL21 (DE3) cells using KISGRLSPIMTEQ as substrate incubated for 30 mins in presence of ATP by absorbance based assay

Sequence of Mitogen-activated protein kinase 3 (Homo sapiens) (P27361 whole entry): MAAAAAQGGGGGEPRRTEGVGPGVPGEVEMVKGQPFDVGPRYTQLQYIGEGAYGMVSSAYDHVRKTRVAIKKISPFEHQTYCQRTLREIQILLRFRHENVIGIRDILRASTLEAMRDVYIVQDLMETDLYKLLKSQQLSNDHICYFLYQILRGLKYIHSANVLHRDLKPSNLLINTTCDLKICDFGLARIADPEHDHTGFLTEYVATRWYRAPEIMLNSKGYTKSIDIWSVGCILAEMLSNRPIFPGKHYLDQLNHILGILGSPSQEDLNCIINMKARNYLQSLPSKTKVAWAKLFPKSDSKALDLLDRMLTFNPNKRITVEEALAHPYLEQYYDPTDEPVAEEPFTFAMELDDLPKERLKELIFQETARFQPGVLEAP
Sequence of Tyrosine-protein kinase Fyn (Homo sapiens) (P06241 2-537 limits assumed): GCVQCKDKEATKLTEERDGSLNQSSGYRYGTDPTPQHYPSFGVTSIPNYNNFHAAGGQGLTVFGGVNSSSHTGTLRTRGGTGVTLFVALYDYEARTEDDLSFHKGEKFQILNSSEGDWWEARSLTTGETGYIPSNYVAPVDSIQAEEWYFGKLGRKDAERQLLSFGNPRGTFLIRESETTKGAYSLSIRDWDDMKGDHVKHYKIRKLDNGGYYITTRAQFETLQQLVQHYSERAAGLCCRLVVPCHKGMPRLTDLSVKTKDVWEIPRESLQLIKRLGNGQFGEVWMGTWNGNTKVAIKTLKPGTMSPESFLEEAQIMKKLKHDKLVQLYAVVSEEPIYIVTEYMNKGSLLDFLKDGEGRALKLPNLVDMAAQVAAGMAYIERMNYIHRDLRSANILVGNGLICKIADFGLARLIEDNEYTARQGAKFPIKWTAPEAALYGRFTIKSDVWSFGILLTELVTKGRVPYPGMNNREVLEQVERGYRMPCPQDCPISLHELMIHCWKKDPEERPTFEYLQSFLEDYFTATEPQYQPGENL
Sequence of Mitogen-activated protein kinase 1 (Homo sapiens) (P28482 whole entry): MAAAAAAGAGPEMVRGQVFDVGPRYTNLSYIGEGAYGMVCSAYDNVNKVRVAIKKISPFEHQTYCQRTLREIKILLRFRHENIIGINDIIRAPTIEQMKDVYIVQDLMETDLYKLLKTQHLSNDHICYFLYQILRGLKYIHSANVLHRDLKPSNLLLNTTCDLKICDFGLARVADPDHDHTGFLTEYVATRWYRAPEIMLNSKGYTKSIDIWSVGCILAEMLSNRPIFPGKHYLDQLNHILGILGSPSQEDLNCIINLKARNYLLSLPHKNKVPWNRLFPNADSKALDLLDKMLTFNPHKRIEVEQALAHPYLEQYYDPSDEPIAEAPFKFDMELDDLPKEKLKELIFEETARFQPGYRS
Sequence of Glycogen synthase kinase-3 beta (Homo sapiens) (P49841 whole entry, looked up, the tested form may be a part): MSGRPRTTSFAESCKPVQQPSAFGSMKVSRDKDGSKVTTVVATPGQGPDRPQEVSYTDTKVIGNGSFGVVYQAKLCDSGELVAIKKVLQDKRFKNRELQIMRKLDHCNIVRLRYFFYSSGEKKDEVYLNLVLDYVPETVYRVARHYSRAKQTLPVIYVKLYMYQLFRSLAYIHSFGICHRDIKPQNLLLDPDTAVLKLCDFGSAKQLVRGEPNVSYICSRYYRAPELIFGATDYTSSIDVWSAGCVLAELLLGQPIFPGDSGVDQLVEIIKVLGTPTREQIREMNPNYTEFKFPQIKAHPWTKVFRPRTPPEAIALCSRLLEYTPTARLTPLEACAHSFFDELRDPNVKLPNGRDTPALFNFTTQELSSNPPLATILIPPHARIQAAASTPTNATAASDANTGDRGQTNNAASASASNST

Structure (SMILES): COc1ccc(C(=O)N2Cc3c(cc(OC)cc3OC)CC2C2CCCCC2)cc1 (stereo not given)
pIC50 [1]: < 4.70

Structure (SMILES): COc1cc2c(c(OC)c1)CNC(C1CCCCC1)C2 (stereo not given)
pIC50 [1]: < 4.70

Structure (SMILES): COc1cc2c(c(OC)c1)CN(C(=O)c1ccccc1)C(C1CCCCC1)C2 (stereo not given)
pIC50 [1]: < 4.70

Structure (SMILES): Oc1cc(O)c2c(c1)CC(C1CCCCC1)NC2 (stereo not given)
pIC50 [1]: < 4.70

Structure (SMILES): O=C(O[C@@H]1Cc2c(O)cc(O)cc2O[C@@H]1c1cc(O)c(O)c(O)c1)c1cc(O)c(O)c(O)c1 [EPIGALOCATECHIN GALLATE]
pIC50 [1]: 6.70

The next lines start with results.

pIC50 [1]: < 4.70
Structure (SMILES): O=C(c1ccccc1)N1Cc2c(O)cc(O)cc2CC1C1CCCCC1 (stereo not given)

pIC50 [1]: < 4.70
Structure (SMILES): O=C(c1ccc(O)cc1)N1Cc2c(O)cc(O)cc2CC1C1CCCCC1 (stereo not given)

pIC50 [1]: < 4.70
Structure (SMILES): COc1cccc(C(=O)N2Cc3c(cc(OC)cc3OC)CC2c2cc(OC)c(OC)c(OC)c2)c1 (stereo not given)

Stability [2]: Stable | inhibition (Homo sapiens): Active | concentration [6]: 27.6 nM | inhibition [8]: inactive | concentration [9]: 38.2 nM | inhibition [11]: Active | inhibition [12]: inactive | inhibition [13]: inactive
Structure (SMILES): O=C(c1cc(O)c(O)c(O)c1)N1Cc2c(O)cc(O)cc2CC1c1cc(O)c(O)c(O)c1 (stereo not given)
Activity (Mus musculus [3]): inactive | Activity (Mus musculus [4]): Active | Activity (Mus musculus [5]): inactive | Activity (Mus musculus [7]): inactive | inhibition (Mus musculus [10]): Active

pIC50 [14]: 7.70
Structure (SMILES): Oc1ccc(-c2cnc3[nH]cc(-c4ccc(F)cc4)c3c2)cc1O

pIC50 [1]: < 4.70
Structure (SMILES): COc1cc2c(c(OC)c1)CN(C(=O)c1ccccc1)C(c1cc(OC)c(OC)c(OC)c1)C2 (stereo not given)

pIC50 [1]: < 4.70
Structure (SMILES): COc1cc2c(c(OC)c1)CNC(c1ccccc1)C2 (stereo not given)

pIC50 [1]: < 4.70
Structure (SMILES): Oc1cc(O)c2c(c1)CC(c1ccccc1)NC2 (stereo not given)
